US8106003B2, “Peptides and methods for the treatment of inflammatory disease” (Auckland Uniservices Limited, priority 2004, dated 2012)

Columns and labels:
[1] = system: tyrosine phosphorylation of β7cyt; assay: In vitro kinase assay of GST-β7cyt fusion protein with H9 cell lysate; type: biochemical, human; settings: genistein at 20 μM; H9 cell lysate 1:100
Experimental: Phosphorylation of recombinant GST fusion protein encoding β7cyt. H9 cells (5×10^7) were lysed at 4° C. in 1 ml of lysis buffer (10 mM Tris pH 7.4, 50 mM NaCl, 50 mM NaF, 1 mM sodium orthovanadate, 300 μg/ml PMSF, 20 μg/ml aprotinin, 10 μg/ml leupeptin, and 1% NP-40), centrifuged, and the supernatant precleared with GST-Sepharose. A GST fusion protein (50 μg) encoding the β7 subunit cytoplasmic domain bound to glutathione-Sepharose was incubated with trace amounts (1:100 dilution) of precleared lysate for 2 h at 4° C. The beads were washed thrice with lysis buffer and thrice with kinase buffer (10 mM Tris pH 7.4, 50 mM NaCl, 5 mM MgCl2, 5 mM MnCl2, 0.1 mM Na3VO4), and incubated in 30 μl kinase buffer containing 0.5 μCi [^32P] γATP for 20 min at 30° C. The sample was subjected to SDS-PAGE on a 10% acrylamide gel. The gel was stained with Coomassie Blue to visualize the GST fusion protein, and treated with 1 M KOH at 55° C. for 2 h to remove alkali-labile phosphate moieties on serine and threonine. The gel was dried, and subjected to autoradiography.

[2] = system: β2 integrin (αLβ2)-mediated adhesion of H9 cells to ICAM-1; assay: Cell adhesion assay: H9 cells to ICAM-1-Fc (integrin specificity); type: cell-based, human; settings: Mn++-activated H9 cells
Experimental: Cell adhesion assays. Lab-Tek 16-well glass slides (Nunc) or flat-bottomed 96-well maxisorb plates (Nunc) were coated with purified mouse MAdCAM-1-Fc, human VCAM-1-Fc, and human ICAM-1-Fc (70 to 100 μl of 5 to 10 μg/ml), and incubated at 4° C. overnight. Slides were washed once with PBS, and blocked with FCS for 2 h at room temperature. Slides were washed with Hanks balanced salt solution (HBSS) containing 10 mM Hepes. Cells were either left unlabeled or labeled with the fluorescent dye chloromethyl fluorescein diacetate (CMFDA; Molecular Probes, Oregon), and activated by resuspension in HBSS containing 10 mM Hepes supplemented with 2 mM Ca^++ and 2 mM Mn^++. Cells were alternatively activated with 50 ng/ml PMA, or by incubating with AlF4^− (10 mM NaF and 40 µM AlCl3). They were preincubated with peptides at different concentrations for 10 min at room temperature, checked for viability by trypan blue exclusion, and then 10^6 cells added to each coated well and left to adhere for 30 min at room temperature. […] The number of adherent cells was determined by counting the number of adherent cells in four independent fields at 100× magnification under an inverted microscope. […] The fluorescence of CMFDA-labeled adherent cells was measured using a VICTOR 1420 multilabel counter (Wallac). […]

Molecule	blockade of phosphorylation of β7cyt [1]	inhibition of H9 cell binding to ICAM-1 [2]
O=c1c(-c2ccc(O)cc2)coc2cc(O)cc(O)c12 [genistein]	completely blocked	–
YDDREY: cell permeable YDRREY (SEQ ID NO. 1) peptide, carrier not stated at this place	–	neither the cell permeable YDDREY (SEQ ID NO. 1) peptide nor the β3 CARD were able to block
